Reference: ChEMBL document CHEMBL1140306 (J Med Chem, 2005)

Tests used:
Acetylcholinesterase [1] = target: T1, Acetylcholinesterase (Homo sapiens, UniProt P22303); assay: Inhibition of human AChE induced beta-amyloid aggregation in thioflavin T-based fluorometric assay; format: functional; design: concentration or dose not given beside the values; settings: concentration not given here
Cholinesterase = Cholinesterase (Homo sapiens, UniProt P06276); assay: Inhibition of isolated human BuChE
Acetylcholinesterase [2] = target: T1, Acetylcholinesterase; assay: Inhibition of recombinant human AChE
[3] = target: Cholinesterases; ACHE & BCHE (Homo sapiens) (UniProt P06276+P22303); assay: Ratio of IC50 for human BuChE and AChE; format: protein assay
Chain of Cholinesterases; ACHE & BCHE (Homo sapiens) (P06276 whole entry, looked up): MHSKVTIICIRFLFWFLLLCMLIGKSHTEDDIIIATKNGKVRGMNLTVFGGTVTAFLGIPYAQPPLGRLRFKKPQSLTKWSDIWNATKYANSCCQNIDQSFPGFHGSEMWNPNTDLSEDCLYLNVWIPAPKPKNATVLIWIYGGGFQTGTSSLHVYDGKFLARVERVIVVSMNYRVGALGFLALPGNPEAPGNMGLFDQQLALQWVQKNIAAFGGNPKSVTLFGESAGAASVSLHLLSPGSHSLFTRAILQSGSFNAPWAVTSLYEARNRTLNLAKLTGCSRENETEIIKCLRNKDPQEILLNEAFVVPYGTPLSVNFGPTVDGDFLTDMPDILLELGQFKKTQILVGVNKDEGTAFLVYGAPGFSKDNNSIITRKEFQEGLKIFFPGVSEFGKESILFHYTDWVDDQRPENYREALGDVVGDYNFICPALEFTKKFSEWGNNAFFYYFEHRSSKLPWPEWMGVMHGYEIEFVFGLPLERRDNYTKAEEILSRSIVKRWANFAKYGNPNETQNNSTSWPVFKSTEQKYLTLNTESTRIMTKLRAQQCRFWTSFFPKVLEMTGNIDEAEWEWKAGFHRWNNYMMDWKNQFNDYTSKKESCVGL
Chain of Cholinesterases; ACHE & BCHE (Homo sapiens) (P22303 whole entry, looked up): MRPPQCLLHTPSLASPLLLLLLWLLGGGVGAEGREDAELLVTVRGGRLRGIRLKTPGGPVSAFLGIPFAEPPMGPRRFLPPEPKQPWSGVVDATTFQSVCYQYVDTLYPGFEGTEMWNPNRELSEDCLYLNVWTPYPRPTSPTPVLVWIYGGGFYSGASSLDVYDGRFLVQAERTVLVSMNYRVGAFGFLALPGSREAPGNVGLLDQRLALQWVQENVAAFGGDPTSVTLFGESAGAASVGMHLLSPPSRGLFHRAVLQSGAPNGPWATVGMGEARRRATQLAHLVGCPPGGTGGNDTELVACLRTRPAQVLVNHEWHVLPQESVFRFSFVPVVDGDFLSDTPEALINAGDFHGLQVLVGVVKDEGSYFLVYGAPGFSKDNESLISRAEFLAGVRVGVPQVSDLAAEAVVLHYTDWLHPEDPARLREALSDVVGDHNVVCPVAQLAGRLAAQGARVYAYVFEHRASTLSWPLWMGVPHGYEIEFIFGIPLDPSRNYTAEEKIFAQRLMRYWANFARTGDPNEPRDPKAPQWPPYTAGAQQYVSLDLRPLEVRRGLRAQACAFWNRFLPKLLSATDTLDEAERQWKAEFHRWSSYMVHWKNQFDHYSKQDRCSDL

Chain of Cholinesterase (P06276 whole entry): as the sequence (P06276 whole entry, looked up) above
T1 sequence (P22303 whole entry): as the sequence (P22303 whole entry, looked up) above

Compound | inhibition (Acetylcholinesterase [1]) | IC50 (Cholinesterase) | IC50 (Acetylcholinesterase [2]) | Ratio [3]
CNC(=O)Oc1cccc(CN(C)CCCCCCCOc2ccc3c(c2)OC/C(=C\c2cc(OC)c(OC)c(OC)c2)C3=O)c1 | 45.3% | 0.153 µM | 0.00981 µM | 15.6
CN(CCCCCCCOc1ccc2c(c1)O/C(=C\c1cccc3ccccc13)C2=O)Cc1cccc(O)c1 | 49.5% |  |  | 0.09
CNC(=O)Oc1cccc(CN(C)CCCCCCCOc2ccc3c(c2)O/C(=C\c2ccccc2)C3=O)c1 | 43.3% | 0.0579 µM | 0.00195 µM | 29.7
CNC(=O)Oc1cccc(CN(C)CCCOc2ccc3c(c2)O/C(=C\c2cccc4ccccc24)C3=O)c1 | 37.2% | 0.0443 µM | 0.00686 µM | 6.45
CNC(=O)Oc1cccc(CN(C)CCCOc2ccc3c(=O)c4ccccc4oc3c2)c1 | < 10% |  |  | 
CNC(=O)Oc1ccc2c(c1)[C@]1(C)CCN(C)[C@@H]1N2C | 30% |  |  | 
CNC(=O)Oc1cccc(CN(C)CCCCCCCOc2ccc3c(c2)O/C(=C\c2c4ccccc4cc4ccccc24)C3=O)c1 | 65.3% | 0.761 µM | 0.0791 µM | 9.6
CNC(=O)Oc1cccc(CN(C)CCCCCCCOc2ccc3c(c2)O/C(=C\c2cc(Cl)cc(Cl)c2)C3=O)c1 | 47.6% | 0.13 µM | 0.0446 µM | 2.91
CNC(=O)Oc1cccc(CN(C)CCCCCCCOc2ccc3c(c2)CC/C(=C\c2cc(OC)c(OC)c(OC)c2)C3=O)c1 | 33.3% | 0.0844 µM | 0.00494 µM | 17.1
CNC(=O)Oc1cccc(CN(C)CCCCCCCOc2ccc3c(c2)C/C(=C\c2cc(OC)c(OC)c(OC)c2)C3=O)c1 | 32.8% | 0.0813 µM | 0.0018 µM | 45.2
CNC(=O)Oc1cccc(CN(C)CCCOc2ccc3c(c2)O/C(=C\c2cc(OC)c(OC)c(OC)c2)C3=O)c1 | 29.2% | 0.155 µM | 0.00299 µM | 51.8
CNC(=O)Oc1cccc(CN(C)CCCOc2ccc3c(c2)O/C(=C\c2ccc4ccccc4c2)C3=O)c1 | 35% | 0.0703 µM | 0.00341 µM | 20.6
CNC(=O)Oc1cccc(CN(C)CCCCCCCOc2ccc3c(c2)O/C(=C\c2cc(OC)c(OC)c(OC)c2)C3=O)c1 | 41% | 0.136 µM | 0.00052 µM | 261
CNC(=O)Oc1cccc(CN(C)CCCCCCCOc2ccc3c(=O)c4ccccc4oc3c2)c1 | < 10% |  |  | 51.6
CNC(=O)Oc1cccc(CN(C)CCCCCCCOc2ccc3c(c2)O/C(=C\c2ccc(Cl)c(Cl)c2)C3=O)c1 | 49.1% | 0.0946 µM | 0.008 µM | 11.8
CNC(=O)Oc1cccc(CN(C)CCCCCCCOc2ccc3c(c2)OCC3=O)c1 | 17.5% | 11.4 µM |  | 7.08
CNC(=O)Oc1cccc(CN(C)CCCCCCCOc2ccc3c(c2)O/C(=C\c2cccc4ccccc24)C3=O)c1 | 66.7% | 0.0402 µM | 0.00276 µM | 14.5
